Measured values published in PubChem BioAssay AID192 (DTP/NCI, 2004).
Values joined by “and” are separate entries in the source; they are usually repeats but may differ in a detail not shown here. Identical values can stand only once. Toxic doses and inconclusive results are not listed. The calls were made as follows: active = survival T/C of 150% or more; inactive = T/C below 125% in these data.

System: BDF1 mice, B16 melanoma ip, median survival T/C
Test: NCI In Vivo Anticancer Drug Screen. Data for tumor model B16 Melanoma (intraperitoneal) in B6D2F1 (BDF1) mice
Settings: endpoint: median survival time, higher = longer survival
Outline: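 In this screen, activity was judged from survival or tumor size in treated versus vehicle-treated tumor-bearing mice, reported as T/C.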

[1] = dose: 12.5 mg/kg/injection, schedule: Q01DX009 (ip), vehicle: saline
[2] = dose: 25.0 mg/kg/injection, schedule: Q01DX009 (ip), vehicle: saline
[3] = dose: 50.0 mg/kg/injection, schedule: Q01DX009 (ip), vehicle: saline
[4] = dose: 100.0 mg/kg/injection, schedule: Q01DX009 (ip), vehicle: saline
[5] = dose: 200.0 mg/kg/injection, schedule: Q01DX009 (ip), vehicle: saline
[6] = dose: 100.0 mg/kg/injection, schedule: Q01DX009 (ip), vehicle: saline with Tween-80
[7] = dose: 200.0 mg/kg/injection, schedule: Q01DX009 (ip), vehicle: saline with Tween-80
[8] = dose: 400.0 mg/kg/injection, schedule: Q01DX009 (ip), vehicle: saline with Tween-80
[9] = dose: 50.0 mg/kg/injection, schedule: Q01DX009 (ip), vehicle: Klucel (hydroxypropylcellulose) (HPC)
[10] = dose: 100.0 mg/kg/injection, schedule: Q01DX009 (ip), vehicle: Klucel (hydroxypropylcellulose) (HPC)
[11] = dose: 200.0 mg/kg/injection, schedule: Q01DX009 (ip), vehicle: Klucel (hydroxypropylcellulose) (HPC)
[12] = dose: 12.5 mg/kg/injection, schedule: Q01DX009 (ip), vehicle: saline with Tween-80
[13] = dose: 25.0 mg/kg/injection, schedule: Q01DX009 (ip), vehicle: saline with Tween-80
[14] = dose: 50.0 mg/kg/injection, schedule: Q01DX009 (ip), vehicle: saline with Tween-80

Measured: T/C

COc1cc(C(=O)OC(C)CN2CCOCC2)cc(OC)c1OC (centres undefined)
inactive: dose: 3.12 mg/kg/injection, schedule: Q04DX003 (ip), vehicle: saline 106 % of control | dose: 6.25 mg/kg/injection, schedule: Q04DX003 (ip), vehicle: saline 111 % of control | [1] 100 % of control | dose: 12.5 mg/kg/injection, schedule: Q04DX003 (ip), vehicle: saline 106 % of control | [2] 100 % of control | dose: 25.0 mg/kg/injection, schedule: Q04DX003 (ip), vehicle: saline 105 % of control | [3] 100 % of control | dose: 50.0 mg/kg/injection, schedule: Q04DX003 (ip), vehicle: saline 102 % of control | [4] 108 % of control | dose: 100.0 mg/kg/injection, schedule: Q04DX003 (ip), vehicle: saline 98 % of control | [5] 102 % of control | dose: 200.0 mg/kg/injection, schedule: Q04DX003 (ip), vehicle: saline 118 % of control | dose: 400.0 mg/kg/injection, schedule: Q04DX003 (ip), vehicle: saline 97 % of control

Cc1nc2c(=O)n(C)c(=O)n(C)c2n1C
inactive: dose: 50.0 mg/kg/injection, schedule: Q04DX003 (ip), vehicle: saline with Tween-80 105 % of control | dose: 100.0 mg/kg/injection, schedule: Q04DX003 (ip), vehicle: saline with Tween-80 105 % of control | dose: 200.0 mg/kg/injection, schedule: Q04DX003 (ip), vehicle: saline with Tween-80 105 % of control

CCOc1ccccc1NC(=O)Nc1ccccc1Cl
inactive: [6] 103 % of control | [7] 94 % of control | [8] 89 % of control

CCCCNC(C)(C)C(SS)c1ccco1 (centres undefined)
inactive: dose: 3.0 mg/kg/injection, schedule: Q01DX009 (ip), vehicle: alcohol 107 % of control | dose: 6.0 mg/kg/injection, schedule: Q01DX009 (ip), vehicle: alcohol 107 % of control | dose: 12.0 mg/kg/injection, schedule: Q01DX009 (ip), vehicle: alcohol 112 % of control | dose: 37.5 mg/kg/injection, schedule: Q01DX009 (ip), vehicle: saline 87 % of control | dose: 55.0 mg/kg/injection, schedule: Q01DX009 (ip), vehicle: saline 106 % of control

C(CSC1=NCCN1)CSC1=NCCN1
inactive: dose: 6.25 mg/kg/injection, schedule: Q01DX009 (ip), vehicle: saline 97 % of control and 102 % of control | [1] 98 % of control and 107 % of control | [2] 105 % of control and 107 % of control | [3] 96 % of control and 117 % of control | [4] 101 % of control and 112 % of control | [5] 107 % of control

Nc1ccc(N(CCCl)CCN(CCCl)c2ccc(N)cc2)cc1
inactive: dose: 0.36 mg/kg/injection, schedule: Q01DX009 (ip), vehicle: saline 108 % of control | dose: 0.75 mg/kg/injection, schedule: Q01DX009 (ip), vehicle: saline 113 % of control | dose: 1.5 mg/kg/injection, schedule: Q01DX009 (ip), vehicle: saline 113 % of control | dose: 3.0 mg/kg/injection, schedule: Q01DX009 (ip), vehicle: saline 119 % of control

O=C(O)CC(NC(=O)OCc1ccccc1)C(=O)OCc1ccccc1 (centres undefined)
inactive: [9] 118 % of control | [10] 89 % of control | [11] 92 % of control

[I][Pt+2][I].[NH-]CC[NH-]
inactive: dose: 2.75 mg/kg/injection, schedule: Q01DX009 (ip), vehicle: Klucel (hydroxypropylcellulose) (HPC) 110 % of control | dose: 5.5 mg/kg/injection, schedule: Q01DX009 (ip), vehicle: Klucel (hydroxypropylcellulose) (HPC) 109 % of control and 114 % of control | dose: 11.0 mg/kg/injection, schedule: Q01DX009 (ip), vehicle: Klucel (hydroxypropylcellulose) (HPC) 109 % of control and 113 % of control | dose: 22.0 mg/kg/injection, schedule: Q01DX009 (ip), vehicle: Klucel (hydroxypropylcellulose) (HPC) 120 % of control

CC1(C)OC(CI)C(COS(C)(=O)=O)O1 (centres undefined)
inactive: [12] 97 % of control | [13] 97 % of control | [14] 96 % of control and 100 % of control

O=c1sc(N=Nc2ccccc2)nn1-c1ccccc1
inactive: dose: 100.0 mg/kg/injection, schedule: Q04DX003 (ip), vehicle: Klucel (hydroxypropylcellulose) (HPC) 94 % of control | dose: 200.0 mg/kg/injection, schedule: Q04DX003 (ip), vehicle: Klucel (hydroxypropylcellulose) (HPC) 89 % of control

Clc1ccc(Sc2ccc(Cl)cc2)cc1
inactive: [6] 101 % of control | [7] 95 % of control | [8] 93 % of control

C=C/C(C)=C/[C@H](C)C(=O)C[C@H](O)CC1CC(=O)NC(=O)C1
inactive: dose: 6.25 mg/kg/injection, schedule: Q01DX009 (ip), vehicle: saline with Tween-80 121 % of control | [12] 109 % of control | [13] 121 % of control | [6] 121 % of control

CCNCc1cc(Nc2cc(C)nc(/N=C(\N)Nc3ccc(Cl)c(Cl)c3)n2)ccc1OC
inactive: dose: 6.25 mg/kg/injection, schedule: Q01DX009 (ip), vehicle: Klucel (hydroxypropylcellulose) (HPC) 100 % of control | dose: 12.5 mg/kg/injection, schedule: Q01DX009 (ip), vehicle: Klucel (hydroxypropylcellulose) (HPC) 102 % of control | dose: 25.0 mg/kg/injection, schedule: Q01DX009 (ip), vehicle: Klucel (hydroxypropylcellulose) (HPC) 91 % of control

CC1CCC2(OC1)OC1C(O)C3C4CCC5CC(OC6OC(CO)C(OC7OC(CO)C(O)C(OC8OCC(O)C(O)C8O)C7OC7OC(CO)C(O)C(OC8OC(CO)C(O)C(O)C8O)C7O)C(O)C6O)C(O)CC5(C)C4CCC3(C)C1C2C (centres undefined)
inactive: dose: 0.62 mg/kg/injection, schedule: Q01DX009 (ip), vehicle: saline 109 % of control | dose: 1.25 mg/kg/injection, schedule: Q01DX009 (ip), vehicle: saline 99 % of control | dose: 2.5 mg/kg/injection, schedule: Q01DX009 (ip), vehicle: saline 103 % of control | dose: 5.0 mg/kg/injection, schedule: Q01DX009 (ip), vehicle: saline 92 % of control

CN(Cc1ccccc1)/N=N/c1nc[nH]c1C(N)=O
inactive: [13] 111 % of control | [14] 111 % of control | [6] 111 % of control | [7] 110 % of control

NC(=O)c1ncc[nH]c1=O
inactive: [3] 118 % of control | [4] 124 % of control

C=C(C)[C@@H]1CC[C@]2(CO)CC[C@]3(C)[C@H](CC[C@@H]4[C@@]5(C)CC[C@H](O)C(C)(C)[C@@H]5CC[C@]43C)[C@@H]12
inactive: [10] 99 % of control | [11] 97 % of control | dose: 400.0 mg/kg/injection, schedule: Q01DX009 (ip), vehicle: Klucel (hydroxypropylcellulose) (HPC) 95 % of control

CC(C)(C)C(=O)C1C(=O)c2ccccc2C1=O
inactive: dose: 0.06 mg/kg/injection, schedule: Q01DX009 (ip), vehicle: Klucel (hydroxypropylcellulose) (HPC) 94 % of control | dose: 0.12 mg/kg/injection, schedule: Q01DX009 (ip), vehicle: Klucel (hydroxypropylcellulose) (HPC) 97 % of control | dose: 0.25 mg/kg/injection, schedule: Q01DX009 (ip), vehicle: Klucel (hydroxypropylcellulose) (HPC) 100 % of control and 108 % of control

CC(C)(C)c1cc(C[P+](c2ccccc2)(c2ccccc2)c2ccccc2)cc(C(C)(C)C)c1O
inactive: dose: 0.78 mg/kg/injection, schedule: Q01DX009 (ip), vehicle: saline 111 % of control | dose: 1.56 mg/kg/injection, schedule: Q01DX009 (ip), vehicle: saline 109 % of control | dose: 3.12 mg/kg/injection, schedule: Q01DX009 (ip), vehicle: saline 104 % of control | dose: 3.25 mg/kg/injection, schedule: Q04DX003 (ip), vehicle: saline 94 % of control | dose: 4.6 mg/kg/injection, schedule: Q01DX009 (ip), vehicle: saline 86 % of control

O=[N+]([O-])/C=C/c1ccc2ccccc2c1
inactive: [9] 95 % of control | [10] 107 % of control
